Data published in patent US20210253557A1, “SUBSTITUTED TRIAZOLE DERIVATIVES AND USES THEREOF” (Bayer Pharma Aktiengesellschaft, priority 2017, published 2021).

Columns and labels:
human V1a receptor = molecular target: T1, human V1a receptor (Homo sapiens, UniProt P37288); test: Cellular in vitro assay for determining vasopressin receptor activity (V1a, aequorin luminescence); assay type: cell-based; conditions: for IC50: CHO cell line transfected with the human V1a receptor, [Arg8]-vasopressin at EC50 concentration, read-out: IC50 hV1a; for ratio IC50 hV2/hV1a: selectivity ratio of IC50 hV2 to IC50 hV1a
T1 construct: expressed in transfected cells; host or cells: CHO K1 (ATCC), also stably transfected with a modified aequorin
Protocol: (§1) B-1. Cellular In Vitro Assay for Determining Vasopressin Receptor Activity
(§2) The identification of agonists and antagonists of the V1a and V2 vasopressin receptors from humans, rats and dogs as well as the quantification of the activity of the compounds of the invention is carried out using recombinant cell lines. These cell lines originally derive from a hamster's ovary epithelial cell (Chinese Hamster Ovary, CHO K1, ATCC: American Type Culture Collection, Manassas, Va. 20108, USA). The test cell lines constitutively express the human, rat or dog V1a or V2 receptors. In case of the Gαq-coupled V1a receptors, cells are also stably transfected with a modified form of the calcium-sensitive photoproteins aequorin (human and rat V1a) or obelin (dog V1a), which, after reconstitution with the cofactor coelenterazine, emit light when there are increases in free calcium concentrations [Rizzuto R, Simpson A W, Brini M, Pozzan T, Nature 358, 325-327 (1992); Illarionov B A, Bondar V S, Illarionova V A, Vysotski E S, Gene 153 (2), 273-274 (1995)]. The resulting vasopressin receptor cells react to stimulation of the recombinantly expressed V1a receptors by intracellular release of calcium ions, which can be quantified by the resulting photoprotein luminescence. The Gs-coupled V2 receptors are stably transfected into cell lines expressing the gene for firefly luciferase under control of a CRE-responsible promoter. Activation of V2 receptors induces the activation of the CRE-responsive promoter via cAMP increase, thereby inducing the expression of firefly luciferase. The light emitted by photoproteins of V1a cell lines as well as the light emitted by firefly luciferase of V2 cell lines corresponds to the activation or inhibition of the respective vasopressin receptor. The bioluminescence of the cell lines is detected using a suitable luminometer [Milligan G, Marshall F, Rees S, Trends in Pharmacological Sciences 17, 235-237 (1996)].
Vasopressin V1a receptor cell lines:
On the day before the assay, the cells are plated out in culture medium (DMEM/F12, 2% FCS, 2 mM glutamine, 10 mM HEPES, 5 μg/ml coelenterazine) in 384-well microtiter plates and kept in a cell incubator (96% humidity, 5% v/v CO2, 37° C.). On the day of the assay, test compounds in various concentrations are placed for 10 minutes in the wells of the microtiter plate before the agonist [Arg^8]-vasopressin at EC50 concentration is added. The resulting light signal is measured immediately in a luminometer.
(§3) Table 1A below lists individual IC50 values for the compounds of the invention (including racemic mixtures as well as separated enantiomers) that were obtained from cell lines transfected with the human V1a or V2 receptor: […]

human V2 receptor = molecular target: T2, human V2 receptor (Homo sapiens, UniProt P30518); test: Cellular in vitro assay for determining vasopressin receptor activity (V2, CRE-luciferase); assay type: cell-based; conditions: CHO cell line transfected with the human V2 receptor; [Arg8]-vasopressin at EC50 concentration; read-out: IC50 hV2
T2 construct: expressed in transfected cells; host or cells: CHO K1 (ATCC) expressing firefly luciferase under a CRE-responsive promoter
Protocol: as §1, §2
Vasopressin V2 receptor cell lines:
On the day before the assay, the cells are plated out in culture medium (DMEM/F12, 2% FCS, 2 mM glutamine, 10 mM HEPES) in 384-well microtiter plates and kept in a cell incubator (96% humidity, 5% v/v CO2, 37° C.). On the day of the assay, test compounds in various concentrations and the agonist [Arg^8]-vasopressin at EC50 concentration are added together to the wells, and plates are incubated for 3 hours in a cell incubator. Upon addition of the cell lysis reagent Triton™ and the substrate luciferin, luminescence of firefly luciferase is measured in a luminometer.
as §3

T1 sequence (P37288 whole entry): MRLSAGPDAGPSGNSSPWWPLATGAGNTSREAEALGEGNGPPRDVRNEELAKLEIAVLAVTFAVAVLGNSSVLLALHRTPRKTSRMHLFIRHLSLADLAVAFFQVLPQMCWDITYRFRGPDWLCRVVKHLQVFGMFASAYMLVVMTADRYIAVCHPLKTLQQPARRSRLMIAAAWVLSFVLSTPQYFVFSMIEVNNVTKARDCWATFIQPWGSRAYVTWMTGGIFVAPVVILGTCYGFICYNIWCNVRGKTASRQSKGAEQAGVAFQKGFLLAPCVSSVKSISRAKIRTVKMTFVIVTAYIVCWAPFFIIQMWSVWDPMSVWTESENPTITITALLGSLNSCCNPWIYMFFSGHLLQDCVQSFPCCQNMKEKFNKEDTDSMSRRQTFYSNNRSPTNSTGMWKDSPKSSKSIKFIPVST
T2 sequence (P30518 whole entry): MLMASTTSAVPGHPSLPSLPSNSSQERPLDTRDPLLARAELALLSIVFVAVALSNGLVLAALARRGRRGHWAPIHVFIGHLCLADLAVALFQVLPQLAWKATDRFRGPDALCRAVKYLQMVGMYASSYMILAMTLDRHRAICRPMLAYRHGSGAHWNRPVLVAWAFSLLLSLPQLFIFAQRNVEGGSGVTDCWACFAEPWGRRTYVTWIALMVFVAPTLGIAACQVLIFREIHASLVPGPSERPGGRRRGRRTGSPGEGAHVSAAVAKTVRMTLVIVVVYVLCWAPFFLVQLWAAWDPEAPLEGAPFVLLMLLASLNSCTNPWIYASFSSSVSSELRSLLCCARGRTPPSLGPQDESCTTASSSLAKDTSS

Compound | IC50 (human V1a receptor) [nM] | ratio IC50 hV2/hV1a (human V1a receptor) | IC50 (human V2 receptor) [nM]
COc1ccccc1-n1nc(Cn2nc(-c3ccc(Cl)cc3)n(C[C@H](OC(N)=O)C(F)(F)F)c2=O)nc1C(C)OC(N)=O (single isomer, unassigned) [Example 42] | 1.08 | 6.8 | 7.37
CC(N)c1nc(Cn2nc(-c3ccc(Cl)cc3)n(C[C@H](O)C(F)(F)F)c2=O)nn1-c1cccc(F)c1 (single isomer, unassigned) [Example 54] | 3.09 | 1.4 | 4.2
CC(N)c1nc(Cn2nc(-c3ccc(Cl)cc3)n(C[C@H](O)C(F)(F)F)c2=O)nn1-c1cccc(F)c1 (single isomer, unassigned) [Example 55] | 18 | 1.4 | 26
CC(N)c1nc(Cn2nc(-c3ccc(Cl)cc3)n(C[C@H](O)C(F)(F)F)c2=O)nn1-c1ccccc1Cl (single isomer, unassigned) [Example 61] | 0.45 | 6.3 | 2.83
CC(N)c1nc(Cn2nc(-c3ccc(Cl)cc3)n(C[C@H](O)C(F)(F)F)c2=O)nn1-c1ccccc1Cl (single isomer, unassigned) [Example 62] | 0.97 | 11.7 | 11.4
CC(=O)NC(C)c1nc(Cn2nc(-c3ccc(Cl)cc3)n(C[C@H](O)C(F)(F)F)c2=O)nn1-c1ccccc1Cl (single isomer, unassigned) [Example 65] | 2.05 | 5.3 | 10.8
CC(=O)NC(C)c1nc(Cn2nc(-c3ccc(Cl)cc3)n(C[C@H](O)C(F)(F)F)c2=O)nn1-c1ccccc1Cl (single isomer, unassigned) [Example 66] | 3.75 | 14.0 | 52.5
CC(NS(C)(=O)=O)c1nc(Cn2nc(-c3ccc(Cl)cc3)n(C[C@H](O)C(F)(F)F)c2=O)nn1-c1ccccc1Cl (single isomer, unassigned) [Example 68] | 0.97 | 4.6 | 4.5
CC(NS(C)(=O)=O)c1nc(Cn2nc(-c3ccc(Cl)cc3)n(C[C@H](O)C(F)(F)F)c2=O)nn1-c1ccccc1Cl (single isomer, unassigned) [Example 69] | 0.7 | 12.4 | 8.65
CN1C(=O)CCC1c1nc(Cn2nc(-c3ccc(Cl)cc3)n(C[C@H](O)C(F)(F)F)c2=O)nn1-c1ccccc1Cl (single isomer, unassigned) [Example 71] | 0.7 | 19.7 | 13.8
CN1C(=O)CCC1c1nc(Cn2nc(-c3ccc(Cl)cc3)n(C[C@H](O)C(F)(F)F)c2=O)nn1-c1ccccc1Cl (single isomer, unassigned) [Example 72] | 0.67 | 9.9 | 6.63
CC(NC(=O)C(F)(F)F)c1nc(Cn2nc(-c3ccc(Cl)cc3)n(C[C@H](O)C(F)(F)F)c2=O)nn1-c1ccccc1Cl (single isomer, unassigned) [Example 74] | 5.35 | 3.4 | 18
CC(NC(=O)C(F)(F)F)c1nc(Cn2nc(-c3ccc(Cl)cc3)n(C[C@H](O)C(F)(F)F)c2=O)nn1-c1ccccc1Cl (single isomer, unassigned) [Example 75] | 4.2 | 14.1 | 59
CC(C)(C)OCC(NS(C)(=O)=O)c1nc(Cn2nc(-c3ccc(Cl)cc3)n(C[C@H](O)C(F)(F)F)c2=O)nn1-c1ccccc1Cl (single isomer, unassigned) [Example 83] | 1.95 | 41.3 | 80.5
CC(C)(C)OCC(NS(C)(=O)=O)c1nc(Cn2nc(-c3ccc(Cl)cc3)n(C[C@H](O)C(F)(F)F)c2=O)nn1-c1ccccc1Cl (single isomer, unassigned) [Example 84] | 4.75 | 9.4 | 44.5
